Laboratory results published in patent publication US20110105623A1 (Biogenic Innovations, LLC, priority 2009, published 2011).
Where “and” joins values, the source holds several entries; their conditions need not be identical. Equal entries are not always repeated.

Tested on: Lactobacillus acidophilus
Experiment: Recovery from Acidophilus milk fortified with MSM into broth without MSM
Assay type: cell-based
Conditions: for Lag Recovery of Lactobacillus acidophilus in Milk fortified with MSM Day 7: 5% MSM; for Lag Recovery of Lactobacillus acidophilus in Milk fortified with MSM Day 7 / Lag Recovery of Lactobacillus acidophilus in Milk fortified with MSM Day 14 / Lag Recovery of Lactobacillus acidophilus in Milk fortified with MSM Day 28: duplicates; for Recovery of Lactobacillus acidophilus in Milk fortified with MSM Day 14, initial start data: Day 14-0
Procedure: The Acidophilus milk was low fat (Darigold). […] All preparations and plating was conducted at room temperature.
The recovery study was run parallel to the study done on the affects of MSM on growth of Lactobacillus acidophilus in Acidophilus milk fortified with MSM. The recovery growth rate was analyzed on Day 7, Day 14, Day 21 and Day 28. For Table 27, the growth for Day x with no time is calculated from the initial growth study with the dilution factor into the log growth. […] Table 28 takes the value of 2.00 as the starting value.

Methylsulfonylmethane [MSM]
Recovery of Lactobacillus acidophilus in Milk fortified with MSM Day 7, average recovery (5.0% MSM, Day 7-24): 12.71 logs | Lag Recovery of Lactobacillus acidophilus in Milk fortified with MSM Day 7 (Day 7-24): 12.12 logs and 13.29 logs | Recovery of Lactobacillus acidophilus in Milk fortified with MSM Day 7, average recovery (5.0% MSM, Day 7-48): 13.17 logs | Lag Recovery of Lactobacillus acidophilus in Milk fortified with MSM Day 7 (Day 7-48): 13.09 logs and 13.25 logs | Recovery of Lactobacillus acidophilus in Milk fortified with MSM Day 7, average recovery (5.0% MSM, Day 7-72): 12.99 logs | Lag Recovery of Lactobacillus acidophilus in Milk fortified with MSM Day 7 (Day 7-72): 13.1 logs and 12.87 logs | recovery log growth lower than the control (5.0% MSM, Day 14, first 24 hours): 1.02 logs | Recovery of Lactobacillus acidophilus in Milk fortified with MSM Day 14, initial start data (5.0% MSM): 6.04 logs | Recovery of Lactobacillus acidophilus in Milk fortified with MSM Day 14, average recovery (5.0% MSM, Day 14-24): 9.60 logs | Lag Recovery of Lactobacillus acidophilus in Milk fortified with MSM Day 14 (5.0% MSM, Day 14-24): 9.6 logs | Recovery of Lactobacillus acidophilus in Milk fortified with MSM Day 14, average recovery (5.0% MSM, Day 14-48): 13.02 logs | Lag Recovery of Lactobacillus acidophilus in Milk fortified with MSM Day 14 (5.0% MSM, Day 14-48): 12.99 logs and 13.04 logs | Recovery of Lactobacillus acidophilus in Milk fortified with MSM Day 14, average recovery (5.0% MSM, Day 14-72): 12.43 logs | Lag Recovery of Lactobacillus acidophilus in Milk fortified with MSM Day 14 (5.0% MSM, Day 14-72): 12.65 logs and 12.21 logs | Recovery of Lactobacillus acidophilus in Milk fortified with MSM Day 21, initial start data (5.0% MSM): 3.56 logs | Recovery of Lactobacillus acidophilus in Milk fortified with MSM Day 21, average recovery (5.0% MSM, Day 21-24): 9.69 logs | Recovery of Lactobacillus acidophilus in Milk fortified with MSM Day 21, average recovery (5.0% MSM, Day 21-48): 13.08 logs | Recovery of Lactobacillus acidophilus in Milk fortified with MSM Day 21, average recovery (5.0% MSM, Day 21-72): 13.15 logs | Recovery of Lactobacillus acidophilus in Milk fortified with MSM Day 28, initial start data (5.0% MSM): 0.52 logs | Recovery of Lactobacillus acidophilus in Milk fortified with MSM Day 28, average recovery (5.0% MSM, Day 28-24): 5.56 logs | Lag Recovery of Lactobacillus acidophilus in Milk fortified with MSM Day 28 (5.0% MSM, Day 28-24): 5.64 logs and 5.48 logs | Recovery of Lactobacillus acidophilus in Milk fortified with MSM Day 28, average recovery (5.0% MSM, Day 28-48): 12.87 logs | Lag Recovery of Lactobacillus acidophilus in Milk fortified with MSM Day 28 (5.0% MSM, Day 28-48): 12.58 logs and 13.16 logs | Recovery of Lactobacillus acidophilus in Milk fortified with MSM Day 28, average recovery (5.0% MSM, Day 28-72): 12.48 logs | Lag Recovery of Lactobacillus acidophilus in Milk fortified with MSM Day 28 (5.0% MSM, Day 28-72): 12.49 logs and 12.47 logs | Day 7 log recovery growth rate increase from start time of zero (5.0% MSM, Hour 0): 0.00 logs | Day 14 log recovery growth rate increase from start time of zero (5.0% MSM, Hour 0): 0.00 logs | Day 21 log recovery growth rate increase from start time of zero (5.0% MSM, Hour 0): 0.00 logs | Day 7 log recovery growth rate increase from start time of zero (5.0% MSM, Hour 24): 4.00 logs | Day 14 log recovery growth rate increase from start time of zero (5.0% MSM, Hour 24): 3.56 logs | Day 21 log recovery growth rate increase from start time of zero (5.0% MSM, Hour 24): 6.13 logs | Day 7 log recovery growth rate increase from start time of zero (5.0% MSM, Hour 48): 0.47 logs | Day 14 log recovery growth rate increase from start time of zero (5.0% MSM, Hour 48): 3.42 logs | Day 21 log recovery growth rate increase from start time of zero (5.0% MSM, Hour 48): 3.39 logs | Day 7 log recovery growth rate increase from start time of zero (5.0% MSM, Hour 72): −0.19 logs | Day 14 log recovery growth rate increase from start time of zero (5.0% MSM, Hour 72): −0.59 logs | Day 21 log recovery growth rate increase from start time of zero (5.0% MSM, Hour 72): 0.08 logs | Day 28 log recovery growth rate increase from start time of zero (5.0% MSM, Time 0): 0.00 logs | Day 28 log recovery growth rate increase from start time of zero (5.0% MSM, Time 24): 5.04 logs | Day 28 log recovery growth rate increase from start time of zero (5.0% MSM, Time 48): 7.31 logs | Day 28 log recovery growth rate increase from start time of zero (5.0% MSM, Time 72): −0.39 logs | Recovery of Lactobacillus acidophilus in Milk fortified with MSM Day 7, initial start data ([…] MSM, Day 7): 8.50 logs | Recovery of Lactobacillus acidophilus in Milk fortified with MSM Day 7, average recovery ([…] MSM, Day 7-24): 13.16 logs | Recovery of Lactobacillus acidophilus in Milk fortified with MSM Day 7, average recovery ([…] MSM, Day 7-48): 12.36 logs | Recovery of Lactobacillus acidophilus in Milk fortified with MSM Day 7, average recovery ([…] MSM, Day 7-72): 12.60 logs | Recovery of Lactobacillus acidophilus in Milk fortified with MSM Day 14, initial start data ([…] MSM): 5.33 logs | Recovery of Lactobacillus acidophilus in Milk fortified with MSM Day 14, average recovery ([…] MSM, Day 14-24): 9.87 logs | Recovery of Lactobacillus acidophilus in Milk fortified with MSM Day 14, average recovery ([…] MSM, Day 14-48): 12.32 logs | Recovery of Lactobacillus acidophilus in Milk fortified with MSM Day 14, average recovery ([…] MSM, Day 14-72): 12.57 logs | Recovery of Lactobacillus acidophilus in Milk fortified with MSM Day 21, initial start data ([…] MSM): 3.47 logs | Recovery of Lactobacillus acidophilus in Milk fortified with MSM Day 21, average recovery ([…] MSM, Day 21-24): 10.79 logs | Recovery of Lactobacillus acidophilus in Milk fortified with MSM Day 21, average recovery ([…] MSM, Day 21-48): 12.78 logs | Recovery of Lactobacillus acidophilus in Milk fortified with MSM Day 21, average recovery ([…] MSM, Day 21-72): 13.10 logs | Recovery of Lactobacillus acidophilus in Milk fortified with MSM Day 28, initial start data ([…] MSM): 1.33 logs | Recovery of Lactobacillus acidophilus in Milk fortified with MSM Day 28, average recovery ([…] MSM, Day 28-24): 6.37 logs | Lag Recovery of Lactobacillus acidophilus in Milk fortified with MSM Day 28 ([…] MSM, Day 28-24): 6.37 logs | Recovery of Lactobacillus acidophilus in Milk fortified with MSM Day 28, average recovery ([…] MSM, Day 28-48): 12.57 logs | Recovery of Lactobacillus acidophilus in Milk fortified with MSM Day 28, average recovery ([…] MSM, Day 28-72): 12.66 logs | Day 7 log recovery growth rate increase from start time of zero ([…] MSM, Hour 0): 0.00 logs | Day 14 log recovery growth rate increase from start time of zero ([…] MSM, Hour 0): 0.00 logs | Day 21 log recovery growth rate increase from start time of zero ([…] MSM, Hour 0): 0.00 logs | Day 7 log recovery growth rate increase from start time of zero ([…] MSM, Hour 24): 4.66 logs | Day 14 log recovery growth rate increase from start time of zero ([…] MSM, Hour 24): 4.54 logs | Day 21 log recovery growth rate increase from start time of zero ([…] MSM, Hour 24): 7.32 logs | Day 7 log recovery growth rate increase from start time of zero ([…] MSM, Hour 48): −0.8 logs | Day 14 log recovery growth rate increase from start time of zero ([…] MSM, Hour 48): 2.45 logs | Day 21 log recovery growth rate increase from start time of zero ([…] MSM, Hour 48): 2.00 logs | Day 7 log recovery growth rate increase from start time of zero ([…] MSM, Hour 72): 0.25 logs | Day 14 log recovery growth rate increase from start time of zero ([…] MSM, Hour 72): 0.26 logs | Day 21 log recovery growth rate increase from start time of zero ([…] MSM, Hour 72): 0.32 logs | Day 28 log recovery growth rate increase from start time of zero ([…] MSM, Time 0): 0.00 logs | Day 28 log recovery growth rate increase from start time of zero ([…] MSM, Time 24): 5.04 logs | Day 28 log recovery growth rate increase from start time of zero ([…] MSM, Time 48): 6.20 logs | Day 28 log recovery growth rate increase from start time of zero ([…] MSM, Time 72): 0.09 logs
